In patent publication US4267184A, “Antiinflammatory 4,5-diaryl-2-(substituted-thio)pyrroles and their corresponding sulfoxides and sulfones” (E. I. Du Pont de Nemours and Company, priority 1980, dated 1981):

Columns and labels:
[1] = system: phenylquinone writhing in mice; assay: Phenylquinone Writhing Test (analgesic activity); assay type: in vivo, female white mice; settings: Mus musculus, oral, phenylquinone i.p., effective analgesic dose for 50% of the mice
Text: A procedure for detecting and comparing the analgesic activity of compounds in this series and standard drugs for which there is a good correlation with human efficacy is the phenylquinone writhing test.
(§1) The test procedures employed for determining antiinflammatory and analgesic activity are described below with test data included in Tables VII and VIII.
The phenylquinone writhing test, modified from Siegmund, et al., Proc. Soc. Exp. Biol. Med. 95, 729 (1957), was employed. A test compound suspended in 1% methylcellulose was given orally to fasted (17-21 hours) female white mice, 5-20 animals per double blind test. Aqueous (0.01% phenyl-p-benzoquinone) phenylquinone was injected intraperitoneally at 24 minutes later using 0.20 ml per mouse. […] The effective analgesic dose for 50% of the mice (ED50) was calculated by the moving average method of Thompson, W. R., Bact. Rev. 11, 115-145 (1947).

[2] = system: Adjuvant-Induced Arthritis in Rats; assay: Established Adjuvant-Induced Arthritis in Rats; assay type: in vivo, Charles River Lewis male rats; settings: for ED50: 168 h, oral gavage daily for 7 days, ED50% decrease from control paw volume
Experimental: A procedure for detecting and comparing the antiinflammatory activity of compounds in this series and standard drugs for which there is a good correlation with human efficacy is the adjuvant-induced arthritis test in rats.
as §1
Charles River Lewis male rats (130-150 grams) are injected subcutaneously in plantar area of the right hind paw with 0.1 ml of adjuvant (Difco heat-killed, lyophilized Mycobacterium butyricum suspended in mineral oil 5 mg/ml). 20 Non-arthritic controls are injected with mineral oil. The animals are held for 2 weeks to allow development of arthritis. Paw volumes (uninjected, left hind paw) are measured and the adjuvant injected rats are culled and distributed to treatment groups of 10 of equal disease severity. Non-arthritic controls are distributed to 2 groups of 10. The rats are given oral doses of compound or PVA-Acacia (Polyvinyl Alcohol 1%, Gum Acacia, U.S.P. 5%, Methylparaben 0.5%) (10 ml/kg) by gavage on that day and on the 6 following days. One day after the last dose the paw volumes (uninjected, left hind paw) are measured using a Ugo Basile Volume Differential Meter Model 7101. [formula]
Dose-response regression lines of the % decrease are plotted on semi-log paper by visual fit and the ED50% decrease from control paw volume is determined by inspection.

[3] = Rattus norvegicus, Table VII, oral, read-out: percent reduction in paw volume at the indicated dose
[4] = Table VIII, oral, dose 27 (unit not given)

| Compound | ED50 ([1]; Table VII) | ED50 ([2]; Rattus norvegicus, Table VII) | ED50 ([1]; Table VIII) | also measured |
| --- | --- | --- | --- | --- |
| FC(F)(F)Sc1cc(-c2ccccc2)c(-c2ccccc2)[nH]1 [Example 1, 4,5-Diphenyl-2-(trifluoromethylthio)pyrrole] | > 135 mg/kg |  |  | inhibition in vivo at 25 mg/kg ([2]; Rattus norvegicus, Table VII, oral, dose 25 mg/kg, read-out: percent reduction in paw volume at the indicated dose): 36% |
| COc1ccc(-c2cc(SC(F)(F)F)[nH]c2-c2ccc(OC)cc2)cc1 [Example 2, 4,5-Bis(4-methoxyphenyl)-2-(trifluoromethylthio)pyrrole] | 30 mg/kg | 1.7 mg/kg |  |  |
| Fc1ccc(-c2cc(SC(F)(F)F)[nH]c2-c2ccc(F)cc2)cc1 [Example 3, 4,5-bis(4-fluorophenyl)-2-(trifluoromethylthio)pyrrole] | > 135 mg/kg | 1.5 mg/kg |  |  |
| FC(F)(F)Sc1cc(-c2ccc(Cl)cc2)c(-c2ccc(Cl)cc2)[nH]1 [Example 4] | > 130 mg/kg | 2.8 mg/kg |  |  |
| CCOc1ccc(-c2[nH]c(SC(F)(F)F)cc2-c2ccc(F)cc2)cc1 [Example 5] | > 130 mg/kg |  |  | inhibition in vivo at 27 mg/kg [2, 3]: 19% |
| Fc1ccc(-c2[nH]c(SC(F)(F)F)cc2-c2ccc(Cl)cc2)cc1 [Example 6] | > 108 mg/kg | 2 mg/kg |  |  |
| Fc1ccc(-c2cc(SC(F)(F)F)[nH]c2-c2ccc(Cl)cc2)cc1 [Example 7] | > 108 mg/kg | 1.1 mg/kg |  |  |
| COc1ccc(-c2[nH]c(SC(F)(F)F)cc2-c2ccc(F)cc2)cc1 [Example 8] | 26 mg/kg | 30 mg/kg |  |  |
| COc1ccc(-c2[nH]c(SC(F)(F)F)cc2-c2ccc(Cl)cc2)cc1 [Example 9] | > 108 mg/kg | 6 mg/kg |  |  |
| Fc1ccc(-c2cc(SC(F)(F)F)[nH]c2-c2ccccc2)cc1 [Example 10] | > 108 mg/kg |  |  | inhibition in vivo at 27 mg/kg [2, 3]: 22% |
| FC(F)(F)Sc1cc(-c2ccc(Cl)cc2)c(-c2ccccc2)[nH]1 [Example 11] | > 108 mg/kg | 25 mg/kg |  |  |
| Cc1ccc(-c2cc(SC(F)(F)F)[nH]c2-c2ccc(C)cc2)cc1 [Example 12] | 16.2 mg/kg | 25 mg/kg |  |  |
| Fc1cccc(-c2cc(SC(F)(F)F)[nH]c2-c2cccc(F)c2)c1 [Example 13] | > 108 mg/kg |  |  | inhibition in vivo at 27 mg/kg [2, 3]: 33% |
| Cc1c(SC(F)(F)F)[nH]c(-c2ccccc2)c1-c1ccccc1 [Example 15] |  |  | > 108 mg/kg | ED50 ([2]; Rattus norvegicus, Table VIII): 7.5 mg/kg |
| FC(F)(F)Sc1cc(-c2ccccc2)c(-c2ccc(Cl)c(Cl)c2)[nH]1 [Example 16] | > 108 mg/kg | 2.5 mg/kg |  |  |
| FC(F)(F)Sc1cc(-c2ccccc2)c(-c2cccnc2)[nH]1 [Example 17] |  |  | > 108 mg/kg | ED50 ([2]; Rattus norvegicus, Table VIII): 1.4 mg/kg |
| COc1ccc(-c2cc(SC(F)(F)F)[nH]c2-c2cccs2)cc1 [Example 18] |  |  | 78 mg/kg | ED50 ([2]; Rattus norvegicus, Table VIII): ~100 mg/kg |
| Fc1ccccc1-c1cc(SC(F)(F)F)[nH]c1-c1ccccc1F [Example 19] |  |  | > 108 mg/kg | Adjuvant Arthritis, value in parenthesis (percent reduction in paw volume/dose) ([2]; Table VIII, oral, dose 45 (unit not given)): 29% |
| COc1ccc(-c2[nH]c(SC(F)(F)F)cc2-c2ccccc2)cc1 [Example 20] |  |  | 22 mg/kg | Adjuvant Arthritis, value in parenthesis (percent reduction in paw volume/dose) [2, 4]: 44% |
| Fc1ccc(-c2cc(SC(F)(F)F)[nH]c2-c2ccc(Br)cc2)cc1 [Example 21] |  |  | > 108 mg/kg | ED50 ([2]; Rattus norvegicus, Table VIII): 3.5 mg/kg |
| CN(C)c1ccc(-c2[nH]c(SC(F)(F)F)cc2-c2ccc(F)cc2)cc1 [Example 22] |  |  | > 108 mg/kg | ED50 ([2]; Rattus norvegicus, Table VIII): 8.8 mg/kg |
| Fc1ccc(-c2[nH]c(SC(F)(F)F)cc2-c2ccccc2)cc1 [Example 23] |  |  | > 108 mg/kg | Adjuvant Arthritis, value in parenthesis (percent reduction in paw volume/dose) [2, 4]: 27% |
| FC(F)(F)Sc1cc(-c2ccccc2)c(-c2ccc(Cl)cc2)[nH]1 [Example 24] |  |  | > 135 mg/kg | ED50 ([2]; Rattus norvegicus, Table VIII): 10 mg/kg |
| FC(F)(F)Sc1cc(-c2cccc(Cl)c2)c(-c2cccc(Cl)c2)[nH]1 [Example 25] |  |  | > 108 mg/kg | ED50 ([2]; Rattus norvegicus, Table VIII): 25 mg/kg |
| COc1ccc(-c2[nH]c(SC(F)(F)F)c(C)c2-c2ccc(OC)cc2)cc1 [Example 32] |  |  |  | ED50 ([2]; Rattus norvegicus, Table VIII): 2.2 mg/kg |
| CSc1cc(-c2ccc(F)cc2)c(-c2ccccc2)[nH]1 [Example 47] |  |  |  | inhibition in vivo at 200 mg/kg ([2]; Rattus norvegicus, Table VII, oral, dose 200 mg/kg, read-out: percent reduction in paw volume at the indicated dose): 46% |
| O=S(=O)(c1ccccc1)n1c(SC(F)(F)F)cc(-c2ccc(F)cc2)c1-c1ccc(F)cc1 [Example 77] |  |  |  | Adjuvant Arthritis, value in parenthesis (percent reduction in paw volume/dose) ([2]; Table VIII, oral, dose 9.0 (unit not given)): 37% |
